In PMC10673995, “Discovery of a novel cardiac-specific myosin modulator using artificial intelligence-based virtual screening” (Nature Communications, 2023):
“And” between values parts separate entries of the source, which are not always exact repeats. Identical values can stand only once. Like-named read-outs stand apart in the source and are kept apart here.

Legend:
cardiac myofibrils = experiment: Myofibrillar ATPase, cardiac (ventricle) myofibrils; assay type: biochemical, marmoset (Callithrix jacchus)
Excerpt: (§1) Next we tested the myosin isoform specificity of F10 by measuring its effect on the ATPase activity of myofibrils isolated from ventricle, and fast (Tiberialis Anterior) and slow skeletal muscles (Soleus) isolated from marmoset (Callithrix jacchus).
(§2) Demembranated myofibrils were freshly prepared from bovine ventricle on the day of the experiments as previously described[25],[63]. Marmoset ventricular and skeletal muscle tissue was kindly provided by the Biological Service Unit of King’s College London. Steady-state myofibrillar ATPase activity was measured using an identical protocol as described above but in myofibril assay buffer (composition in mmol L^−1: 20 MOPS pH 7, 50 KCl, 0.1 CaCl2, 1 DTT) with a final bovine CMF concentration of 1 mg mL^−1.

[1] = biological target: bovine β-cardiac myosin S1 / myosin S2 tail domain (Bos taurus, UniProt Q9BE39)
Sequence of bovine β-cardiac myosin S1 / myosin S2 tail domain (Q9BE39 85-778 limits assumed): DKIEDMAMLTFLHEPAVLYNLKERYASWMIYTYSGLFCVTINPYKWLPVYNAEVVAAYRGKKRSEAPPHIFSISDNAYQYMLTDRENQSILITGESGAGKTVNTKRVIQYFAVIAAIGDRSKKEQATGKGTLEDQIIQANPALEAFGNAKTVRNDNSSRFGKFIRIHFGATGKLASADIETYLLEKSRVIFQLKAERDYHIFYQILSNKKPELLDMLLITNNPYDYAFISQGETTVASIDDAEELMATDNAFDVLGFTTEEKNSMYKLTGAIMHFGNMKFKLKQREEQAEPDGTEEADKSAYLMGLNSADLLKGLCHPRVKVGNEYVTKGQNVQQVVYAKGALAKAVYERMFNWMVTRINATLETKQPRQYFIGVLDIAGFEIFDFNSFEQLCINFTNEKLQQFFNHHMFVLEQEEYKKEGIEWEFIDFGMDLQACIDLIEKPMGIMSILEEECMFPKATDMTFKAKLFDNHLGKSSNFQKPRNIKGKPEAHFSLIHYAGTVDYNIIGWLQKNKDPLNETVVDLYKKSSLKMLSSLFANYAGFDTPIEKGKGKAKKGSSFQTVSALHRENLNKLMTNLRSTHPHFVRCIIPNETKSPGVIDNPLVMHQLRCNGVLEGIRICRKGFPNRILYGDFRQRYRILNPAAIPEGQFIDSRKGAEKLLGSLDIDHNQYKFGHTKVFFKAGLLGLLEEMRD
Sequence of bovine β-cardiac myosin S1 / myosin S2 tail domain (P85100 whole entry partner, the tested form may be a part): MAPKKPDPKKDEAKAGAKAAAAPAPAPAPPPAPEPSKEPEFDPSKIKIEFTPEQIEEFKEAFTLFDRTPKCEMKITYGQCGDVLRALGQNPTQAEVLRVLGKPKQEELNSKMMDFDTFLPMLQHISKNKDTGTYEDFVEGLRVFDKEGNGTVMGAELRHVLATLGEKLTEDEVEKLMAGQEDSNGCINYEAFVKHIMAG
Procedure: In a subset of trabeculae, we replaced the endogenous myosin regulatory light chain (RLC) with a recombinant cardiac RLC crosslinked to a bifunctional sulforhodamine (BSR) along its E-helix (BSR-cRLC-E)[39],[40]. This allowed us to determine the orientation of the RLC-region of myosin in demembranated trabeculae using polarized fluorescence (Fig. 4b; Supplementary Table 2).
Microscale thermophoresis (MST) experiments were performed as described previously. Briefly, MST experiments were performed on a Monolith NT.115 instrument (NanoTemper) in interaction buffer containing 20 mmol L^−1 Mops, pH 7, 1 mmol L^−1 MgCl2, 50 mmol L^−1 KCl, 1 mmol L^−1 DTT, and 0.05% (v/v) Tween-20. […] All proteins were either gel-filtered into and/or extensively dialyzed against interaction buffer. Titration experiments were performed with a fixed concentration of 100 nmol L^−1 of Alexa647-labeled proteins in premium capillaries.

[2] = test system: neuropeptide receptor NPYLR7; parameters: method as in PubChem; conditions: ref PubChem; cited from earlier work
[3] = test system: slow skeletal muscle (Soleus) myofibrils; experiment: Myofibrillar ATPase, slow skeletal myofibrils; assay type: biochemical, marmoset (Callithrix jacchus)
Excerpt: as §1, §2

[4] = test system: fast skeletal muscle (Tiberialis Anterior) myofibrils; experiment: Myofibrillar ATPase, fast skeletal myofibrils; assay type: biochemical, marmoset (Callithrix jacchus)
Excerpt: as §1, §2

[5] = biological target: T1, bovine β-cardiac myosin S1 (Bos taurus, UniProt Q9BE39); experiment: Cardiac acto-myosin S1 ATPase (NADH-coupled); assay type: biochemical; parameters: myosin S1 ATPase activity vs F-actin concentration: unit not given here; conditions: for myosin S1 ATPase activity vs F-actin concentration: 100 μmol/L F10, Experiment # 1-9
T1 construct: IC50 for the ATPase activity of the isolated myosin motor domain; from tissue; host or cells: bovine ventricle
T1 sequence (Q9BE39 85-778 limits assumed): as the sequence (Q9BE39 85-778 limits assumed) above
T1 sequence (P85100 whole entry partner, the tested form may be a part): as the sequence (P85100 whole entry partner, the tested form may be a part) above
Procedure: Bovine cardiac myosin S1 was prepared from bovine ventricle as previously described. Rabbit skeletal F-actin was purchased from Cytoskeleton Inc. and prepared for experiments according to manufacturer’s instructions.
20 μL of enzyme mix in buffer A (composition in mmol L^−1: 10 MOPS, 0.1 EGTA, 1 DTT, pH 7) containing 500 nmol L^−1 bovine cardiac myosin S1, 40 U mL^−1 lactate dehydrogenase and 400 U mL^−1 pyruvate kinase were dispensed into a black 96-well half area plate (Greiner). […] Each assay plate contained five wells with DMSO only (negative control) and five wells with 10 μmol L^−1 Blebbistatin (positive control). Plates were incubated on a plate shaker at 30 °C for 10 min at 2000 rpm. […] 96-channel pipette. Plates were briefly mixed by shaking at 5000 rpm on a plate shaker and spun down at 3000 g for 10 s. NADH fluorescence intensity was measured for each well using a ClarioStar Plate Reader for 10 min every 30 sec at 30 °C with the following settings: excitation at 380 nm with a 10 nm bandwidth and emission at 470 nm with a 24 nm bandwidth. Data were recorded with BMG Labtech Reader Control Software v6.20.

SMILES: CCc1cc2c(=O)n(NC(=S)NC(C)C)cnc2s1 [F10]
- reduction of ATPase activity of fully Ca^2+-activated cardiac myofibrils (cardiac myofibrils; 20 μmol L^−1 F10): about 25%
- Myofibrilar ATPase [%], change vs control (cardiac myofibrils; Cardiac, 20 μmol L^-1 F10): -25%
- Myofibrilar ATPase, individual experiments (cardiac myofibrils; Cardiac, 20 μmol L^-1 F10): 83.5308% and 67.1834% and 78.6678% and 70.8623% and 61.5039% and 74.009% and 72.9056% and 72.7421% and 68.3286% and 79.5291% and 87.482% and 81.308% and 87.6564% and 79.3198% and 89.7828% and 83.8896% and 74.0503% and 38.3012% and 88.0917% and 60.4189%
- Normalized MST binding S1-S2 ([1]; 1 mmol L-1 ADP.AlF4, S2D 0.0488): 0.03566
- Normalized MST binding S1-S2 ([1]; 1 mmol L-1 ADP.AlF4, S2D 0.0977): 0.0163
- Normalized MST binding S1-S2 ([1]; 1 mmol L-1 ADP.AlF4, S2D 0.3906): 0.009201
- Normalized MST binding S1-S2 ([1]; 1 mmol L-1 ADP.AlF4, S2D 0.7813): 0.03149
- Normalized MST binding S1-S2 ([1]; 1 mmol L-1 ADP.AlF4, S2D 1.5625): 0.0885
- Normalized MST binding S1-S2 ([1]; 1 mmol L-1 ADP.AlF4, S2D 3.125): 0.1616
- Normalized MST binding S1-S2 ([1]; 1 mmol L-1 ADP.AlF4, S2D 6.25): 0.3206
- Normalized MST binding S1-S2 ([1]; 1 mmol L-1 ADP.AlF4, S2D 12.5): 0.4612
- Normalized MST binding S1-S2 ([1]; 1 mmol L-1 ADP.AlF4, S2D 25): 0.6248
- Normalized MST binding S1-S2 ([1]; 1 mmol L-1 ADP.AlF4, S2D 50): 0.7947
- Normalized MST binding S1-S2 ([1]; 1 mmol L-1 ADP.AlF4, S2D 100): 0.8606
- Normalized MST binding S1-S2 ([1]; 1 mmol L-1 ADP, S2D 0.0488): 0.01363
- Normalized MST binding S1-S2 ([1]; 1 mmol L-1 ADP, S2D 0.0977): 0.01186
- Normalized MST binding S1-S2 ([1]; 1 mmol L-1 ADP, S2D 0.1953): 0.01368
- Normalized MST binding S1-S2 ([1]; 1 mmol L-1 ADP, S2D 0.3906): 0.0116
- Normalized MST binding S1-S2 ([1]; 1 mmol L-1 ADP, S2D 0.7813): 0.04036
- Normalized MST binding S1-S2 ([1]; 1 mmol L-1 ADP, S2D 1.5625): 0.07905
- Normalized MST binding S1-S2 ([1]; 1 mmol L-1 ADP, S2D 3.125): 0.1319
- Normalized MST binding S1-S2 ([1]; 1 mmol L-1 ADP, S2D 6.25): 0.2708
- Normalized MST binding S1-S2 ([1]; 1 mmol L-1 ADP, S2D 12.5): 0.4119
- Normalized MST binding S1-S2 ([1]; 1 mmol L-1 ADP, S2D 25): 0.5835
- Normalized MST binding S1-S2 ([1]; 1 mmol L-1 ADP, S2D 50): 0.7506
- Normalized MST binding S1-S2 ([1]; 1 mmol L-1 ADP, S2D 100): 0.8408
- Normalized MST binding S1-S2 ([1]; 1 mmol L-1 ATP, S2D 0.0488): 0.07487
- Normalized MST binding S1-S2 ([1]; 1 mmol L-1 ATP, S2D 0.0977): 0.0005344
- Normalized MST binding S1-S2 ([1]; 1 mmol L-1 ATP, S2D 0.1953): -0.01266
- Normalized MST binding S1-S2 ([1]; 1 mmol L-1 ATP, S2D 0.3906): 0.02682
- Normalized MST binding S1-S2 ([1]; 1 mmol L-1 ATP, S2D 0.7813): 0.008303
- Normalized MST binding S1-S2 ([1]; 1 mmol L-1 ATP, S2D 1.5625): 0.06777
- Normalized MST binding S1-S2 ([1]; 1 mmol L-1 ATP, S2D 3.125): 0.1347
- Normalized MST binding S1-S2 ([1]; 1 mmol L-1 ATP, S2D 6.25): 0.2613
- Normalized MST binding S1-S2 ([1]; 1 mmol L-1 ATP, S2D 12.5): 0.4278
- Normalized MST binding S1-S2 ([1]; 1 mmol L-1 ATP, S2D 25): 0.5839
- Normalized MST binding S1-S2 ([1]; 1 mmol L-1 ATP, S2D 50): 0.7582
- Normalized MST binding S1-S2 ([1]; 1 mmol L-1 ATP, S2D 100): 0.8343
- biological activity in primary screen [2]: without, however, any biological activity
- decrease in ATPase activity of soleus myofibrils ([3]; 20 μmol L^−1 F10): about 10%
- Myofibrilar ATPase [%], change vs control ([3]; Soleus (slow), 20 μmol L^-1 F10): -10%
- Myofibrilar ATPase, individual experiments ([3]; Soleus, 20 μmol L^-1 F10): 91.7277% and 110.835% and 94.2329% and 93.0845% and 93.8276% and 88.6937% and 89.9096% and 92.8819% and 84.7083% and 101.326% and 81.2354% and 85.1848% and 83.8911% and 92.3346% and 84.6401% and 69.9319% and 80.963% and 77.0136% and 90.9224% and 106.296% and 102.343% and 99.9268% and 89.6779% and 109.737%
- effect on ATPase of myofibrils isolated from fast skeletal muscle ([4]; 20 μmol L^−1 F10): no effect
- Myofibrilar ATPase, individual experiments ([4]; Tiberialis Anterior, 20 μmol L^-1 F10): 103.058% and 94.7749% and 105.182% and 96.587% and 92.4359% and 90.2726% and 101.147% and 99.8027% and 75.8898% and 104.538% and 92.5792% and 95.4782% and 84.5124% and 86.7812% and 82.9998% and 107.831% and 122.01% and 86.3954% and 97.5199% and 112.738% and 111.197% and 105.032% and 96.8457%
- Myofibrilar ATPase [%], change vs control ([4]; Tiberials Anterior (fast), 20 μmol L^-1 F10): -3%
- EC50 [5]: ~20 µM
- LE (ligand efficiency) [5]: 0.34
- reduction of F-actin stimulated ATPase activity ([5]; 10 μmol L^−1, mean ± s.e.m., n = 4): 44 ± 2%
- myosin S1 ATPase activity vs F-actin concentration ([5]; F-Actin 0 μmol L^−1): 0
- myosin S1 ATPase activity vs F-actin concentration ([5]; F-Actin 6.25 μmol L^−1): 0.1565 and 0.1528 and 0.08965 and 0.1313 and 0.1366 and 0.1027 and 0.1063
- myosin S1 ATPase activity vs F-actin concentration ([5]; F-Actin 80 μmol L^−1): 0.417 and 0.4489 and 0.3031
- remaining activity at 12.207 µM ([5]; F10 0.012207 mmol L-1 (so in the source), Experiment # 1-6, read-out: acto-myosin S1 ATPase activity, dose-response): 92.9%
- remaining activity at 24.414 µM ([5]; F10 0.024414 mmol L-1 (so in the source), Experiment # 1-6, read-out: acto-myosin S1 ATPase activity, dose-response): 101%
- remaining activity at 48.828 µM ([5]; F10 0.048828 mmol L-1 (so in the source), Experiment # 1-6, read-out: acto-myosin S1 ATPase activity, dose-response): 99.4%
- remaining activity at 97.656 µM ([5]; F10 0.097656 mmol L-1 (so in the source), Experiment # 1-6, read-out: acto-myosin S1 ATPase activity, dose-response): 92.7%
- remaining activity at […] ([5]; F10 0.195313 mmol L-1 (so in the source), Experiment # 1-6, read-out: acto-myosin S1 ATPase activity, dose-response): 94.4%
- remaining activity at 390.625 µM ([5]; F10 0.390625 mmol L-1 (so in the source), Experiment # 1-6, read-out: acto-myosin S1 ATPase activity, dose-response): 98.9%
- remaining activity at 781.25 µM ([5]; F10 0.78125 mmol L-1 (so in the source), Experiment # 1-6, read-out: acto-myosin S1 ATPase activity, dose-response): 100%
- remaining activity at […] ([5]; F10 3.125 mmol L-1 (so in the source), Experiment # 1-6, read-out: acto-myosin S1 ATPase activity, dose-response): 86.8%
- remaining activity at […] ([5]; F10 6.25 mmol L-1 (so in the source), Experiment # 1-6, read-out: acto-myosin S1 ATPase activity, dose-response): 79.3%
- remaining activity at […] ([5]; F10 12.5 mmol L-1 (so in the source), Experiment # 1-6, read-out: acto-myosin S1 ATPase activity, dose-response): 69.6%
- IC50 ([5]; IC50 acto-myosin S1 ATPase activity, means ± s.e.m., n = 6): 21.3 ± 3.4 µM
- maximal decrease of actomyosin ATPase activity ([5]; dose-response, means ± s.e.m., n = 6): 89 ± 5%
- maximal rate of ATP hydrolysis (kcat) ([5]; in the presence of 100 μmol/L F10, control about 1.3): about 0.5 s^−1 head^−1
- apparent dissociation equilibrium constant for F-actin binding (Kapp) ([5]; in the presence of F10 (same in its absence)): about 20 μmol L^−1
- IC50 ([5]; means ± s.e.m., n = 6, read-out: IC50 acto-myosin S1 ATPase activity): 21 ± 3 µM
- acto-myosin S1 ATPase activity, normalized to DMSO control ([5]; single dose 10 μmol L^−1 compound, 10 μmol L^−1 F-actin, Repeat #1-#4, listed as 70): 59 and 55 and 52 and 58
